This note sets out measurements from patent US9212184B2, “6-thio-substituted imidazo[1,2-a]pyrazines as Mps-1 inhibitors” (BAYER INTELLECTUAL PROPERTY GMBH, priority 2010, dated 2015).

Chain of human kinase Mps-1 (P33981 whole entry): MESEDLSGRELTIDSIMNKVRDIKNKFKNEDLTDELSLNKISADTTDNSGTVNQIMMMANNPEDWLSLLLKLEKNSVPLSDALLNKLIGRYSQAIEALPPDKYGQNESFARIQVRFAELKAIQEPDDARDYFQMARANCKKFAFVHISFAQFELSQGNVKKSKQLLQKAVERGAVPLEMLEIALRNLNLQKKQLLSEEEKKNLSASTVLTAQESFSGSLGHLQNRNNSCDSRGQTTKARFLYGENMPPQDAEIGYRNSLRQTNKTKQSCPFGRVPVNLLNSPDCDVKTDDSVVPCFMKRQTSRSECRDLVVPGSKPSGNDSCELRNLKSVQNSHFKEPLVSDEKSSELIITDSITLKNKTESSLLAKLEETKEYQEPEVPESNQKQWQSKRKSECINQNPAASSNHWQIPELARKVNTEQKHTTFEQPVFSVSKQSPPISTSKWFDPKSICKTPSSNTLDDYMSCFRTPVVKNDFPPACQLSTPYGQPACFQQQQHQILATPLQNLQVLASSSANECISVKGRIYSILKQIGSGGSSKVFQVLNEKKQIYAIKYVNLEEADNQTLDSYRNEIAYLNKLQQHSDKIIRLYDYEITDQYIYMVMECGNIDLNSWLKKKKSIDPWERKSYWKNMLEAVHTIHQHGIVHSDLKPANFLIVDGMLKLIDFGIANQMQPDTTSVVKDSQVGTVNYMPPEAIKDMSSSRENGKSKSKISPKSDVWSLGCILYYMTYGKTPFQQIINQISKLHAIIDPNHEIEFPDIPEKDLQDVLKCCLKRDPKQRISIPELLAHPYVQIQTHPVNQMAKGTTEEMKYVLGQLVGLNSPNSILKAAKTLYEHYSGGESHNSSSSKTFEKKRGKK

The test has as its target human kinase Mps-1 (Homo sapiens (Human), UniProt P33981). Kind of test: Mps-1 kinase assay (TR-FRET). Type of test: biochemical. The following applies: N-terminally GST-tagged human full length recombinant Mps-1; 10 μM ATP; 1 μM peptide substrate; 60 min at 22° C.; read-out: Mps1 IC50. The method, then: The human kinase Mps-1 phosphorylates a biotinylated substrate peptide. Detection of the phosphorylated product is achieved by time-resolved fluorescence resonance energy transfer (TR-FRET) from Europium-labelled anti-phospho-Serine/Threonine antibody as donor to streptavidin labelled with cross-linked allophycocyanin (SA-XLent) as acceptor. Compounds are tested for their inhibition of the kinase activity.
N-terminally GST-tagged human full length recombinant Mps-1 kinase (purchased from Invitrogen, Karslruhe, Germany, cat. no PV4071) was used. As substrate for the kinase reaction a biotinylated peptide of the amino-acid sequence PWDPDDADITEILG (C-terminus in amide form, purchased from Biosynthan GmbH, Berlin) was used.
For the assay 50 nL of a 100-fold concentrated solution of the test compound in DMSO was pipetted into a black low volume 384 well microtiter plate (Greiner Bio-One, Frickenhausen, Germany), 2 μl of a solution of Mps-1 in assay buffer [0.1 mM sodium-ortho-vanadate, 10 mM MgCl2, 2 mM DTT, 25 mM Hepes pH 7.7, 0.05% BSA, 0.001% Pluronic F-127] were added and the mixture was incubated for 15 min at 22° C. to allow pre-binding of the test compounds to Mps-1 before the start of the kinase reaction. […]
The resulting mixture was incubated 1 h at 22° C. to allow the binding of the phosphorylated peptide to the anti-phospho(Ser/Thr)-Europium-antibody. Subsequently the amount of phosphorylated substrate was evaluated by measurement of the resonance energy transfer from the Europium-labelled anti-phospho(Ser/Thr) antibody to the Streptavidin-XLent. Therefore, the fluorescence emissions at 620 nm and 665 nm after excitation at 350 nm was measured in a Viewlux TR-FRET reader (PerkinElmer LAS, Rodgau-Jügesheim, Germany). The “blank-corrected normalized ratio” (a Viewlux specific readout, similar to the traditional ratio of the emissions at 665 nm and at 622 nm, in which blank and Eu-donor crosstalk are subtracted from the 665 nm signal before the ratio is calculated) was taken as the measure for the amount of phosphorylated substrate. […]
Regarding `CSc1cn2c(-c3ccc(C(=O)NC4CC4)cc3)cnc2c(NCC(C)C)n1` [Example 1-2, N-cyclopropyl-4-{8-[(2-methylpropyl)amino]-6-(methylsulfanyl)imidazo[1,2-a]pyrazin-3-yl}benzamide], the IC50 was 5 nM. Then `CSc1cn2c(-c3ccc(C(=O)NC4CC4)c(C)c3)cnc2c(NCCC(F)(F)F)n1` [Example 1-3, N-cyclopropyl-2-methyl-4-{6-(methylsulfanyl)-8-[(3,3,3-trifluoropropyl)amino]imidazo[1,2-a]pyrazin-3-yl} benzamide], with 8.6 nM; and `CSc1cn2c(-c3ccc(C(=O)NC4CC4)c(C)c3)cnc2c(NCC(C)(C)O)n1` [Example 1-4, N-cyclopropyl-4-{8-[(2-hydroxy-2-methylpropyl)amino]-6-(methylsulfanyl)imidazo [1,2-a]pyrazin-3-yl}-2-methylbenzamide], with 64.8 nM.
